For series [1] the following is noted: cited from earlier work.
The conditions of series [2]: in some, but not all, studies; cited from earlier work.
Series [3] deals with patients with fibromyalgia. Description: Flupirtine treatment of patients with fibromyalgia. The format is in vivo. From the text: Flupirtine is an analgesic that has been used in Europe to treat the pain associated with surgery, cancer, trauma, and liver disease. It acts via the central nervous system through non-opite pain pathways, possibly involving the thalamus or spinal pain pathways.

Consider `CCOC(=O)Nc1ccc(NCc2ccc(F)cc2)nc1N` [flupirtine, 2-amino-3-carbethoxyamino-6-(4-fluorobenzylamino)-pyridine], for which, in series [1] (abrupt discontinuation of administration), the withdrawal symptoms result is reported as “does not produce withdrawal symptoms”. Moreover, the sedation entry in series [1] (compared with opiate drugs) was “less sedating than opiate drugs”. Besides, the addiction and abuse result in series [1] (compared with opiates, no reports of abuse) was “not addictive”. Moreover, the “tolerance to analgesic effects” value in series [1] (human, in vivo) is reported as “do not acquire a tolerance”. Also, the reported side effects result in series [1] (relatively safe at dosages lower than 600 mg per day) is “dizziness, drowsiness, pruritus, dry mouth, and, less frequently, nausea, depression, sleep disturbance, and headache”. Besides, in series [1] (unlike opiates), the cardiovascular side effects entry is reported as “not associated with cardiovascular side effects” and the muscle relaxant properties result is on record as “exhibits muscle relaxant properties”. The “effectiveness in relieving pain compared with opiates” value in series [2] is given as “as effective as opiates”. The “analgesic action compared with opiates” value in series [3] (patients with fibromyalgia and related conditions) is “roughly comparable to the effect produced by opiates”. Besides, in series [3] (some patients with fibromyalgia, also where high doses of opiates, NSAIDs and placquenil fail), the “effect on chronic and severe body pain” value was “completely eliminating the chronic and severe body pain”.

The values above are taken from patent US6610324B2, “Flupirtine in the treatment of fibromyalgia and related conditions” (The McLean Hospital Corporation, priority 1999, dated 2003).
